# Assay results taken from paper PMC4686831, “Identification of an allosteric binding site for RORγt inhibition” (Nature Communications, 2015).
# Columns and labels:
# [1] = molecular target: T1, RORγt-LBD (Homo sapiens, UniProt P51449); test: RORγt-LBD SRC-1 cofactor FRET assay; type: biochemical
# T1 construct: leader […]; made in house; host or cells: BL21(DE3) E. coli
# T1 sequence (P51449 259-518): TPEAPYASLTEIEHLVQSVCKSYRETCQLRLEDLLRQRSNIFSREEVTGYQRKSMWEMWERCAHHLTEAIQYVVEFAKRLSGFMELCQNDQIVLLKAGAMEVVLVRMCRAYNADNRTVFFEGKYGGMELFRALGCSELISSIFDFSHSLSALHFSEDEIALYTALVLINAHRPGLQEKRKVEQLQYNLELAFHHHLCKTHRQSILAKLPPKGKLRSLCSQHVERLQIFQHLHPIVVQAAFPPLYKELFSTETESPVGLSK
# Experimental: The potency of small-molecule RORγt ligands was then assessed by monitoring their effect on the association of a LXXLL-motif-containing SRC-1 peptide. Compound (10 mM dimethylsulphoxide (DMSO) stock) was serially diluted in threefold steps using an Agilent Bravo liquid handler. […] Compounds were allowed to incubate with receptor for 15 min and then 5 μl of peptide in detection buffer or detection buffer alone were added. Detection buffer (5 × ) consists of 50 mM Tris-HCL pH 7.0, 50 mM potassium chloride, 1 mM EDTA, 0.1% delipidated bovine serum albumin, 1 mM DTT and 20 nM streptavidin-APC (PerkinElmer). […] The plate was then incubated overnight at 4 °C. The following morning the plate was warmed to room temperature and read using an Envision plate reader (PerkinElmer). […] The per cent activity of each dilution was determined as the ratio of background corrected signal to the background corrected signal of wells receiving only DMSO. IC50 values were determined by fitting per cent activity data to a four-parameter logistic dose–response equation in GraphPad Prism (GraphPad Software).
# [2] = system: IL-17 production in human PBMCs; test: PBMC Th17 polarization and IL-17 production assay; type: cell-based; details: 96 h, 4 days, mean±s.d., read-out: hPBMC IL17A IC50
# Experimental: Test compounds were prepared as 10 mM stocks in DMSO and serially diluted 1:3 to provide an eight-concentration titration. […] Stimulatory cytokines were added to final concentrations of 25 ng ml^−1 IL-1B, 10 ng ml^−1 IL-23, 0.5 ng ml^−1 IL-2 and 10 ng ml^−1 IL-6 (all cytokines from R&D Systems). In addition, T-Activator CD3/28 Dynabeads (Invitrogen) were added to a concentration of 100,000 beads per ml. The stimulated cells were immediately dispensed into the assay plate containing serially diluted compound at a volume of 200 μl cells per well. Cell plates were then incubated at 37 °C and 5% CO2 for 4 days. Culture media (100 μl) was collected from each well and IL-17 expression was measured by enzyme-linked immunosorbent assay (R&D Systems) according to the manufacturer's instructions. Cell viability was assessed by the addition of 100 μl of CellTiter-Glo (Promega) to each well of the cell assay plate followed by luminescence detection on an Envision plate reader (PerkinElmer).
# [3] = molecular target: T2, RORγt-GAL4 (Homo sapiens, UniProt P51449); test: Chimeric RORγt-GAL4 luciferase reporter assay in HEK293T cells; type: cell-based; details: mean±s.d.
# T2 construct: expressed in transfected cells; host or cells: HEK293T
# T2 sequence (P51449 97-518): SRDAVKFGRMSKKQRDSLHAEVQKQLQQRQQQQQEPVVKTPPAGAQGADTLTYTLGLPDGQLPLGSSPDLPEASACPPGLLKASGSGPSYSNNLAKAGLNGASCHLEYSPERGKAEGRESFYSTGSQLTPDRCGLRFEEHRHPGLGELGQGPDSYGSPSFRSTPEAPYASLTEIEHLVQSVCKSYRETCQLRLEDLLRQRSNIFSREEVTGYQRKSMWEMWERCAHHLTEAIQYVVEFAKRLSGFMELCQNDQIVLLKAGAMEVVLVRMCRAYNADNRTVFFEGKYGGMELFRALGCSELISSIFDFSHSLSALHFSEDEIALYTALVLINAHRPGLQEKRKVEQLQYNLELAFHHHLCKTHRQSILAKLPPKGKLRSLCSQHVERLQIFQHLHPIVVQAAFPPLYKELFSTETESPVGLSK
# Experimental: This vector, along with the GAL4 UAS-luciferase reporter vector pGL4.31 (Promega), was used to transfect HEK293T cells. […] Following transfection, cells were transferred to one T75 flask and incubated overnight at 37 °C and 5% CO2. […] Cells were collected and resuspended at 0.8 × 10^6 cells per ml in DMEM high-glucose media with 10% FBS. To each well of the plate was added 25 μl of cell suspension and the cells incubated overnight at 37 °C and 5% CO2. After 20–22 h, the plates were brought to room temperature and 25 μl of Steady-Glo luciferase reagent (Promega) was added to each well. The luminescent signal was measured on an Envision plate reader.
# [4] = molecular target: T1, RORγt-LBD; test: RORγt-LBD AlexaFluor-647-labelled MRL-871 competitive binding assay; details: 100 nM probe; mean±s.d.; read-out: MRL-871 AlexaFluor Probe Competition IC50
# Experimental: The plate was then incubated for 15 min at room temperature. […] TR-FRET intensity in the presence of RORγt was corrected for background and the KD determined using the One-site specific binding equation in Graph Pad Prism. […] IC50 values were determined by fitting per cent activity data to a four-parameter logistic dose–response equation in GraphPad Prism.
structure (smiles),measurement,setting,value
CC1(C(=O)O)CC=C(c2nn(C(=O)c3c(Cl)cccc3C(F)(F)F)c3cccc(F)c23)CC1 (centres unmarked) [MRL-673],weaker potency relative to MRL-367,[1]; in both the biochemical and cellular assays,10 fold
same,IC50,"[1]; mean±s.d., read-out: SRC1 Cofactor FRET IC50",21.8 ± 6.7 nM
same,IC50,[2],142 ± 64 nM
same,IC50,[3],279 ± 137 nM
same,IC50,[4],26.4 ± 13 nM
